Laboratory results taken from US20100298305A1, “TIZANIDINE FOR THE TREATMENT OF POST-TRAUMATIC STRESS DISORDER AND NIGHTMARES” (The United States Government, as represented by the …, priority 2008, published 2010).
Read-outs that look alike come from different tables or passages of the source.

What was measured:
PTSD [1] = conditions: average dose 2.4 mg; military veterans with PTSD taking or not taking antidepressant; cited from earlier work
[2] = cited from earlier work
PTSD [3] = assay: Example 1 case summaries 1-6: tizanidine as adjunctive treatment for PTSD, anxiety, depression, psychosis or impaired cognition; type: in vivo, human
Description: Treatment was begun with sertraline 100 mg per day for anxiety and nortriptyline 25 mg at bedtime for headaches. […] Treatment with tizanidine was started and the dose was increased to 8 mg at bedtime.
Tizanidine was started and titrated up to 4 mg at bedtime along with aripiprazole (15 mg at bedtime) and clonazepam (0.5 mg daily).
These medications included sertraline (250 mg daily), divalproex sodium (2500 mg daily), quetiapine (100 mg twice daily and 400 mg at bedtime), amitriptyline (25 mg at bedtime), and tramadol (50 mg as needed for severe headache). […] A trial of tizanidine was started and the dose was titrated up to 8 mg at bedtime.
Pharmacologic Treatment and Response: While on the psychiatry unit, they were treated with sertraline for PTSD and nortriptyline for headaches and depression. […] They were started on tizanidine 4 mg at bedtime.
After approximately one year, subject agreed to a trial of tizanidine as an addition to sertraline. […] They agreed to increase the dose to 4 mg at bedtime and follow-up in four weeks. […] An atypical antipsychotic medication, aripiprazole, was added to their medications.
Treatment with tizanidine 4 mg at bedtime was added to the existing sertraline.

PTSD [4] = conditions: Case 10
Description: Given the prior history of ADHD, methylphenidate was cautiously added to the venlafaxine. […] They were referred to a specialty inpatient program for PTSD. During the inpatient program, the antidepressant was switched from venlafaxine to duloxetine.

[5] = fraction of the potency of clonidine; cited from earlier work
PTSD [6] = assay: Example 2 case summaries 7-9: switching from once to twice-daily dosing of tizanidine
Description: They were continued on aripiprazole, quetiapine, sertraline, and trazodone. Treatment with tizanidine was started for the nightmares and poor sleep.
They were switched from tizanidine 8 mg at bedtime to tizanidine 6 mg in the morning and 8 mg at bedtime. […] They continued on the sertraline, divalproex, and trazodone for initial insomnia. The tizanidine was switched to 4 mg in the morning and 4 mg at bedtime.
Subject was started on tizanidine up to 8 mg at bedtime for nightmares. They also were issued a device to assist with memory problems. A rating scale for common cognitive problems was administered by speech pathology prior to issuing them a personal digital assistant as a memory assist device.
They continued to take sertraline and tizanidine. At a psychology evaluation session, subject completed two self-report instruments of PTSD and depressive symptoms to establish a baseline indication of symptom severity. […] Subject was then switched from tizanidine 8 mg at bedtime to 4 mg twice daily.
After approximately one year of being followed in the psychiatry clinic, they became more willing to try medication and agreed to a trial of tizanidine.

[7] = Case 2, tizanidine 4 mg at bedtime with aripiprazole 15 mg and clonazepam 0.5 mg, after two months
[8] = Case 2, tizanidine 8 mg at bedtime, other medications stopped, two months later
[9] = Case 3, tizanidine 8 mg at bedtime, after four weeks
[10] = Case 4, tizanidine 4 mg at bedtime
[11] = Case 5, tizanidine 2 mg at bedtime added to sertraline, several weeks
[12] = Case 5, tizanidine 4 mg at bedtime with sertraline, four weeks
[13] = Case 5, tizanidine 4 mg at bedtime, aripiprazole added, eight weeks later
[14] = Case 5, tizanidine 8 mg at bedtime, not taking sertraline and aripiprazole, eight weeks
[15] = Case 5, tizanidine 8 mg at bedtime, primary care appointment one month later
[16] = Case 6, tizanidine 4 mg at bedtime added to sertraline, approximately four weeks
[17] = tizanidine 4 mg twice daily with methylphenidate, after four weeks
[18] = Case 7, switched from tizanidine 8 mg at bedtime to 6 mg in the morning and 8 mg at bedtime, two months later
[19] = Case 7, tizanidine 4 mg twice daily, one month after switch
[20] = Case 7, tizanidine 8 mg at bedtime, four weeks
[21] = Case 8, tizanidine 4 mg twice daily, two weeks after switch
[22] = Case 9, trial of tizanidine, two months later

For N=C(N)NC(=O)Cc1c(Cl)cccc1Cl [guanfacine], the “relieving signs or symptoms of PTSD compared to placebo” value (PTSD [1]) is listed as “not effective compared to placebo”.

For Clc1ccc2nsnc2c1NC1=NCCN1 [tizanidine], the peak serum levels ([2]; single 4 mg capsule) is given as roughly 4.0 ng/mL, the peak serum levels ([2]; single 4 mg tablet) is given as “about 2.7 ng/ml” and the daytime anxiety (PTSD [3]; Case 1, tizanidine 8 mg at bedtime, after two weeks) is given as “less daytime anxiety”. For the same molecule, the reduction in nightmares (PTSD [3]; Case 1, tizanidine 8 mg at bedtime, after two weeks, subject report) was roughly 50%, the alcohol use (PTSD [3]; [7]) was “one to two” and the mood and energy (PTSD [3]; [7]) was “somewhat better”. The “other signs and symptoms of Major Depression, PTSD, and Psychosis NOS” value (PTSD [3]; [7]) was “unchanged”, the overall condition (PTSD [3]; [7]) was “mildly improved” and the panic attacks (PTSD [3]; [7]) was “had not experienced any panic attacks”. For the same molecule, the overall condition (PTSD [3]; Case 2, tizanidine 8 mg at bedtime, other medications stopped by subject, two months later) was “markedly improved”, the alcohol use (PTSD [3]; Case 2, tizanidine 8 mg at bedtime, other medications stopped, preceding two months) was “had not drunk any alcohol” and the daytime anxiety (PTSD [3]; [8]) was “less anxious during the day”. For the same molecule, the energy (PTSD [3]; [8]) was “improved”, the hallucinations (PTSD [3]; [8]) was “had stopped” and the “intrusive thoughts of combat or the Iraq war” value (PTSD [3]; [8]) was “less frequent”. For the same molecule, the nightmares (PTSD [3]; [8]) was “much less frequent”, the panic attacks (PTSD [3]; [8]) was “able to leave their house without panic attacks” and the sleep (PTSD [3]; [8]) was “improved”. For the same molecule, the combat-related nightmares (PTSD [3]; [9]) was “complete absence of combat-related nightmares”, the “concentration and attention during the day” value (PTSD [3]; [9]) was “easier to concentrate” and the daytime anxiety (PTSD [3]; [9]) was “substantial decrease in daytime anxiety”. The nightmares overall (PTSD [3]; [9]) was “substantial reduction in nightmares overall”, the sleep (PTSD [3]; [9]) was “significantly improved” and the “tremor, at rest and with action” value (PTSD [3]; [9]) was “improved”. The hallucinations (PTSD [3]; Case 3, tizanidine 8 mg at bedtime, after four weeks, quetiapine dose decreased by subject) was “greatly reduced”, the “irritability and anxiety during the day” value (PTSD [3]; [10]) was “less irritable and less anxious” and the nightmares (PTSD [3]; [10]) was “reduced their nightmares”. The quality of sleep (PTSD [3]; [10]) was “improved the quality of their sleep”, the nightmares (PTSD [3]; Case 4, tizanidine 4 mg at bedtime, approximately three weeks after starting) was “somewhat improved” and the nightmares (PTSD [3]; [11]) was “no change to nightmares”. The “side effects or other adverse effects” value (PTSD [3]; [11]) was “no side effects or other adverse effects”, the nightmares frequency (PTSD [3]; [12]) was 3-4 times per week and the overall condition (PTSD [3]; [12]) was “not doing well”. The panic attacks frequency (PTSD [3]; [12]) was 2-3 times per week, the alcohol use (PTSD [3]; [13]) was “one to two” and the “mood and energy level” value (PTSD [3]; [13]) was “an improvement in their mood and energy level”. The overall improvement (PTSD [3]; [13]) was “limited improvement”, the “remainder of PTSD and depressive symptoms” value (PTSD [3]; [13]) was “unchanged” and the panic attacks (PTSD [3]; Case 5, tizanidine 4 mg at bedtime, aripiprazole added, eight weeks later, for several weeks) was “free from panic attacks”. The side-effects (PTSD [3]; Case 5, tizanidine 4 mg at bedtime, eight weeks later) was “no side-effects”, the alcohol consumption (PTSD [3]; [14]) was “decreased to less than once per month” and the “anxiety and energy during the day” value (PTSD [3]; [14]) was “less anxious and more energetic”. For the same molecule, the nightmares (PTSD [3]; [14]) was “improved”, the overall improvement (PTSD [3]; [14]) was “substantial improvement” and the panic attacks (PTSD [3]; [14]) was “continued to be absent”. The anxiety (PTSD [3]; [15]) was “less anxiety”, the depression (PTSD [3]; [15]) was “improved depression” and the hallucinations (PTSD [3]; [15]) was “denied having any hallucinations”. For the same molecule, the nightmares (PTSD [3]; [15]) was “decreased nightmares”, the “feeling rested the next day” value (PTSD [3]; [16]) was “more rested the next day” and the night sweats (PTSD [3]; [16]) was “fewer night sweats”. The nightmares (PTSD [3]; [16]) was “reduction in their nightmares”, the overall sleep quality (PTSD [3]; [16]) was “improved” and the sleep time (PTSD [3]; [16]) was “had not increased their sleep time”. The nightmares (PTSD [4]; [17]) was “absence of nightmares”, the overall helpfulness (PTSD [4]; [17]) was “extremely helpful” and the sleep (PTSD [4]; [17]) was “greatly improved sleep”. For the same molecule, the daytime anxiety (PTSD [4]; when taking tizanidine 4 mg twice daily) was “less daytime anxiety”, the “potency in lowering blood pressure relative to clonidine” value [5] was “one-tenth to one-fiftieth” and the daytime anxiety (PTSD [6]; [18]) was “greater reduction to their daytime anxiety”. The “nightmares and sleep quality” value (PTSD [6]; [18]) was “no change to the beneficial impact”, the nightmares (PTSD [6]; Case 7, tizanidine 4 mg twice daily with sertraline, divalproex, trazodone, one month after switch) was “continued to have no nightmares” and the daytime anxiety (PTSD [6]; [19]) was “no change to daytime anxiety”. The daytime cognition (PTSD [6]; [19]) was “no change in daytime cognition”, the “desire to smoke cigarettes” value (PTSD [6]; [19]) was “definite reduction in their desire to smoke” and the mood (PTSD [6]; [19]) was “no changes in mood”. The sleep (PTSD [6]; [19]) was “continued to have restful sleep”, the nightmares overall (PTSD [6]; Case 7, tizanidine 8 mg at bedtime with aripiprazole, quetiapine, sertraline, trazodone, four weeks) was “greatly reduced nightmares overall” and the “anxiety during the day” value (PTSD [6]; [20]) was “significantly less anxiety during the day”. For the same molecule, the combat-related nightmares (PTSD [6]; [20]) was “complete absence of combat-related nightmares”, the hallucinations (PTSD [6]; [20]) was “fewer hallucinations” and the tremor (PTSD [6]; [20]) was “improved tremor”. For the same molecule, the sleep (PTSD [6]; Case 8, switched from tizanidine 8 mg at bedtime to 4 mg twice daily, two weeks later) was “no change in sleep”, the “energy (new onset, gradually improving)” value (PTSD [6]; [21]) was “mild decrease in energy” and the “hypervigilance during the day” value (PTSD [6]; [21]) was “reduced hypervigilance during the day”. For the same molecule, the “irritability during the day” value (PTSD [6]; [21]) was “less irritability during the day”, the nightmares (PTSD [6]; [21]) was “eliminates nightmares” and the “feeling better the next day” value (PTSD [6]; Case 8, tizanidine 8 mg at bedtime with sertraline) was “significant improvement”. For the same molecule, the cognitive function (PTSD [6]; Case 8, tizanidine up to 8 mg at bedtime with sertraline, memory assist device also issued, following weeks) was “improved”, the “twice-daily compared to once-daily dosing” value (PTSD [6]; Case 9, tizanidine 4 mg twice daily versus 8 mg at bedtime, same total milligrams) was “clear superiority of twice-daily” and the cognitive symptoms (PTSD [6]; [22]) was “unchanged”. The headaches (PTSD [6]; [22]) was “much less intense”, the mood and energy (PTSD [6]; [22]) was “improved” and the sleep (PTSD [6]; [22]) was “better”. The anxiety (PTSD [6]; Case 9, trial of tizanidine, two months later, still startled easily and hypervigilant) was “less anxiety”.
